Test results from patent US9648880B2, “Antifungal agents and uses thereof” (University of Massachusetts, priority 2012, dated 2017).

Key:
[1] = test system: C. albicans SC5314 cells; assay: pretreatment of C. albicans cells, then adhesion assay; type: cell-based, Candida albicans; conditions: 25 μM; alamarBlue or GFP detection
Method: FIGS. 11A-11D. Compound #4 can coat surfaces and reduce subsequent fungal adhesion. […] is a graph showing the results of pretreatment of polystyrene with candidate compounds. Indicated compounds at 50 μM were incubated in polystyrene 96-well plates overnight. Wells were washed three times with 100 μl of PBS. C. albicans adhesion was then measured using the vital dye alamarBlue, with no additional drug treatment. FIG. 11B is a graph showing titration of compounds #1, 4 and 9 for pre-binding to polystyrene. Indicated concentrations of compounds were pre-incubated with polystyrene plates as above prior to the adhesion assays. FIG. 11C is a graph showing the inhibition of adhesion by pretreatment of C. albicans SC5314 cells with compound #4 prior to introduction to plastic. SC5314 cells were treated with 25 μM compound #4 or DMSO in liquid culture prior to their introduced into polystyrene plates. Cells were washed with PBS prior to resuspension into SCM and seeding into 96-well plates for adhesion assays using alamarBlue detection of remaining cells. […] FIG. 11D is a graph showing the results of an assay performed as in FIG. 11C, except that SC5314-GFP cells were used, and then detected via fluorescence measurement. edt1 indicates non-adherent mutant cells, PBS indicates background fluorescence in absence of cells. […]

[2] = test system: C. albicans hyphae formation; assay: filamentation assay (hyphal morphogenesis); type: cell-based, Candida albicans; conditions: 50 μM overlay; 37° C., 2 days
[3] = test system: Aspergillus fumigatus; assay: Aspergillus hyphal formation; type: cell-based; conditions: 50 μM and 100 μM; RPMI overnight
Method: FIGS. 26A-26D. Compound #4 inhibits hyphal formation of Aspergillus fumigatus. FIGS. 26A-26B are photographs showing hyphal development occurs normally in RPMI tissue culture media in the absence of treatment (FIG. 26A) and in the presence of 1% DMSO (control; FIG. 26B). Aspergillus hyphal development was inhibited in the presence of 50 μM and 100 μM compound #4 (FIGS. 26C and 26D, respectively).
Compound #4 was also tested for its inhibitory effect on the growth of Aspergillus fumigatus. Fresh Aspergillus fumigatus conidia (spores) were grown in RPMI tissue culture media overnight in the presence of 1% DMSO (control), 50 μM compound #4, 100 μM compound #4, or no treatment (control) using methods similar to those described in Ramirez-Ortiz et al. (Cell Host & Microbe 9:415-424, 2011). […] This is the first step in germination of the spores, and is required for pathogenesis.

[4] = test system: C. albicans constitutively filamentous strains; assay: hyphal development induced by multiple signals (mutant strains, GlcNAc, hydroxyurea); type: cell-based, Candida albicans; set-up: genotoxic stress-induced filamentation: dose or concentration left out as unconfirmed
Method: FIGS. 30A-30E. Compound #4 inhibits hyphal development induced by multiple signals. FIG. 30A is a schematic diagram of some of the signaling pathways that govern hyphal gene expression. For simplicity, only those genes investigated in this figure are shown. FIG. 30B is a series of photomicrographs showing the effects of compound #4 on constitutively filamentous mutant strains in the cAMP-PKA pathway. Wild-type SC5314, efg1-T206E, ras1-G13V, and ADH1pr-gpa2-Q355L cells were grown in the presence of 1% DMSO or 50 μM compound #4 in Spider medium at 37° C. for 4 hrs, stained with Calcofluor white and photographed using DIC or fluorescent microscopy (20× objective). FIG. 30C is a series of two photomicrographs showing that Compound #4 blocks filamentation induced by GlcNAc or constitutive overexpression of the GlcNac-activated transcription factor Cph1. Images obtained as in FIG. 30B. […] SC5314 cells grown in YPD at 30° C. in the presence of 50 mM hydroxyurea (HU) in combination with either 1% DMSO or […]. Images obtained as in FIG. 30B. FIG. 30E is a series of photomicrographs showing that Compound #4 inhibits the hyperfilamentous growth of a strain that constitutively overexpresses the Gpr1 protein. Colonies were grown on solid Spider media agar overlayed with either 1% DMSO or 50 μM #4 and incubated at 37° C. for 3 days. Colony edges were imaged with a 10× objective.
To explore the mechanism of compound #4 action, we tested whether compound #4 would alter hyphal induction in mutants that hyperactivate the filamentation process. For example, hyphal induction by Spider media requires the cyclic AMP-protein kinase A (cAMP-PKA) pathway; FIG. 30A. Stimulation of this pathway drives PKA to phosphorylate transcription factor Efg1, activating Efg1 to increase expression of genes required for hyphal morphogenesis.
For example, the modified sugar N-acetyl-glucosamine (GlcNac) also stimulates hyphal morphogenesis, but does so independently of the cAMP-PKA pathway, instead activating the transcription factor Cph1.
In addition to nutrient-mediated signals, genotoxic stress promotes hyphal morphogenesis in C. albicans, and the DNA damage signaling kinase Rad53 is required for the hyphal transition.

[5] = test system: Cryptococcus gatti; assay: Cryptococcus proliferation; type: cell-based; conditions: 50 μM and 100 μM; 37° C., 18 hours
Method: FIGS. 27A and 27B. Compound #4 inhibits proliferation of Cryptococcus gatti.
Compound #4 was also tested for its inhibitory effect on the growth of Cryptococcus gatti. Cryptococcus cells were incubated at 37° C. in unsupplemented RPMI tissue culture media (+Glutamine−Phenol Red (Gibco #11835, Life Technologies, Grand Island, N.Y.; “RPMI”) or RPMI tissue culture media supplemented with 100 U/ml Penicillin/100 ug/ml Streptomycin (Gibco 100× Pen/Strep #151500-122), 1 mM NaPyruvate, and 10 mM HEPES pH 7.0 (“Af medium”) in the presence of 1% DMSO (control), 50 μM compound #4, or 100 μM compound #4, and cell numbers were counted after 18 hours. The assay was also performed with an untreated control.

`Cc1ccc(C(=O)N2CCN(c3ccc([N+](=O)[O-])cc3)CC2)cc1Cl` [Compound 4] was tested. Which “adhesion of pre-treated cells” value [1] did it give?
Its value is “could reduce adhesion of pre-treated cells”.

What about the “wrinkled colony morphology on solid Spider media” value [2] of the same compound?
Its value is “abolished”.

And the hyphal formation [3]?
Its hyphal formation is “blocks hyphal formation at both concentrations tested”.

What about the “hyphae driven by GlcNac-containing media or overexpression of Cph1” value [4] of the same compound?
Its value is “also inhibits formation of hyphae in these cases”.

What about the “morphology of hyperfilamentous cAMP-PKA pathway mutants (ras1-G13V, gpa2-Q355L, efg1-T206E)” value ([4]; 50 μM, Spider medium 37° C., 4 hrs) of the same compound?
Its value is “retained a planktonic, budded morphology”.

What about the “hyphal morphogenesis of cells overexpressing Gpr1” value ([4]; 50 μM, solid Spider media, 37° C., 3 days) of the same compound?
Its value is “blocked hyphal morphogenesis in these cells”.

And the genotoxic stress-induced filamentation ([4]; YPD 30° C.)?
Its genotoxic stress-induced filamentation is “form hyphae regardless of the presence of compound #4”.

What about the “proliferation (cell numbers)” value [5] of the same compound?
Its value is “inhibited proliferation of Cryptococcus gatti at both concentrations tested”.
